# Source: ChEMBL document CHEMBL4308841, “Synthesis, in vitro antiproliferative activity, and kinase inhibitory effects of pyrazole-containing diarylureas and diarylamides” (Eur J Med Chem, 2018)
# Columns and labels:
# [1] = tested on: SF-539; assay: Growth inhibition of human SF539 cells incubated for 48 hrs by sulforhodamine B assay; assay type: functional, cell-based; settings: SF-539, 48 h
# [2] = tested on: K562; assay: Growth inhibition of human K562 cells assessed as cell growth at 0.01 uM incubated for 48 hrs by sulforhodamine B assay relative to control; assay type: functional; settings: K562, 48 h, read-out: Activity
# [3] = tested on: MDA-MB-468; assay: Growth inhibition of human MDA-MB-468 cells incubated for 48 hrs by sulforhodamine B assay; assay type: functional, cell-based; settings: MDA-MB-468, 48 h
# [4] = tested on: Hs-578T; assay: Growth inhibition of human Hs578T cells assessed as cell growth at 100 uM incubated for 48 hrs by sulforhodamine B assay relative to control; assay type: functional; settings: read-out: Activity
# [5] = tested on: MDA-MB-435; assay: Growth inhibition of human MDA-MB-435 cells incubated for 48 hrs by sulforhodamine B assay; assay type: functional, cell-based; settings: MDA-MB-435, 48 h
# [6] = tested on: UACC-62; assay: Growth inhibition of human UACC62 cells assessed as cell growth at 0.1 uM incubated for 48 hrs by sulforhodamine B assay relative to control; assay type: functional; settings: UACC-62, 48 h, read-out: Activity
# [7] = tested on: UO-31; assay: Growth inhibition of human UO31 cells assessed as cell growth at 0.01 uM incubated for 48 hrs by sulforhodamine B assay relative to control; assay type: functional; settings: UO-31, 48 h, read-out: Activity
# [8] = tested on: SF-539; assay: Growth inhibition of human SF539 cells assessed as cell growth at 0.1 uM incubated for 48 hrs by sulforhodamine B assay relative to control; assay type: functional; settings: SF-539, 48 h, read-out: Activity
# [9] = tested on: SK-MEL-28; assay: Growth inhibition of human SK-MEL-28 cells incubated for 48 hrs by sulforhodamine B assay; assay type: functional, cell-based; settings: SK-MEL-28, 48 h
# [10] = tested on: A498; assay: Growth inhibition of human A498 cells assessed as cell growth at 0.01 uM incubated for 48 hrs by sulforhodamine B assay relative to control; assay type: functional; settings: A498, 48 h, read-out: Activity
# [11] = tested on: SNB-19; assay: Growth inhibition of human SNB19 cells assessed as cell growth at 100 uM incubated for 48 hrs by sulforhodamine B assay relative to control; assay type: functional; settings: SNB-19, 48 h, read-out: Activity
# [12] = tested on: T47D; assay: Growth inhibition of human T47D cells assessed as cell growth at 0.1 uM incubated for 48 hrs by sulforhodamine B assay relative to control; assay type: functional; settings: read-out: Activity
# [13] = tested on: RPMI-8226; assay: Growth inhibition of human RPMI8226 cells assessed as cell growth at 0.01 uM incubated for 48 hrs by sulforhodamine B assay relative to control; assay type: functional; settings: RPMI-8226, 48 h, read-out: Activity
# [14] = tested on: MDA-MB-231; assay: Growth inhibition of human MDA-MB-231 cells incubated for 48 hrs by sulforhodamine B assay; assay type: functional, cell-based; settings: MDA-MB-231, 48 h
# [15] = tested on: OVCAR-5; assay: Growth inhibition of human OVCAR5 cells assessed as cell growth at 0.01 uM incubated for 48 hrs by sulforhodamine B assay relative to control; assay type: functional; settings: OVCAR-5, 48 h, read-out: Activity
# [16] = tested on: A549; assay: Growth inhibition of human A549/ATCC cells incubated for 48 hrs by sulforhodamine B assay; assay type: functional, cell-based; settings: A549, 48 h
# [17] = tested on: SF-268; assay: Growth inhibition of human SF268 cells assessed as cell growth at 1 uM incubated for 48 hrs by sulforhodamine B assay relative to control; assay type: functional; settings: SF-268, 48 h, read-out: Activity
# [18] = tested on: BT-549; assay: Growth inhibition of human BT549 cells assessed as cell growth at 0.1 uM incubated for 48 hrs by sulforhodamine B assay relative to control; assay type: functional; settings: BT-549, 48 h, read-out: Activity
# [19] = tested on: RPMI-8226; assay: Growth inhibition of human RPMI8226 cells assessed as cell growth at 0.1 uM incubated for 48 hrs by sulforhodamine B assay relative to control; assay type: functional; settings: RPMI-8226, 48 h, read-out: Activity
# [20] = tested on: K562; assay: Growth inhibition of human K562 cells assessed as cell growth at 1 uM incubated for 48 hrs by sulforhodamine B assay relative to control; assay type: functional; settings: K562, 48 h, read-out: Activity
# [21] = tested on: SF-295; assay: Growth inhibition of human SF295 cells incubated for 48 hrs by sulforhodamine B assay; assay type: functional, cell-based; settings: SF-295, 48 h
# [22] = tested on: SW-620; assay: Growth inhibition of human SW620 cells assessed as cell growth at 1 uM incubated for 48 hrs by sulforhodamine B assay relative to control; assay type: functional; settings: SW-620, 48 h, read-out: Activity
# [23] = tested on: ACHN; assay: Growth inhibition of human ACHN cells assessed as cell growth at 100 uM incubated for 48 hrs by sulforhodamine B assay relative to control; assay type: functional; settings: read-out: Activity
# [24] = tested on: HCT-116; assay: Growth inhibition of human HCT116 cells assessed as cell growth at 100 uM incubated for 48 hrs by sulforhodamine B assay relative to control; assay type: functional; settings: HCT-116, 48 h, read-out: Activity
# [25] = tested on: RPMI-8226; assay: Growth inhibition of human RPMI8226 cells incubated for 48 hrs by sulforhodamine B assay; assay type: functional, cell-based; settings: RPMI-8226, 48 h
# [26] = tested on: SF-268; assay: Growth inhibition of human SF268 cells assessed as cell growth at 100 uM incubated for 48 hrs by sulforhodamine B assay relative to control; assay type: functional; settings: SF-268, 48 h, read-out: Activity
# [27] = read-out: LC50 (the source's name)
# [28] = read-out: pLC50 (the source's name) (converted)
smiles,measurement,setting,value
COc1cc(Cl)cc(-c2nn(-c3cccc(NC(=O)Nc4cc(C(F)(F)F)cc(C(F)(F)F)c4)c3)cc2-c2ccncc2)c1,IC50,[1],1410 nM
same,CC50,[1]; [27],55 nM
same,TGI,[1]; read-out: TGI,3490 nM
same,GI50,[1]; read-out: pGI50 (converted),1410 nM
same,CC50,[1]; [28],8710 nM
same,TGI,[1]; read-out: pTGI (converted),3550 nM
same,growth at 0.01 µM,[2],97%
same,IC50,[3],340 nM
same,GI50,[3]; read-out: GI50,336 nM
same,CC50,[3]; [27],> 100000 nM
same,TGI,[3]; read-out: TGI,2520 nM
same,GI50,[3]; read-out: pGI50 (converted),339 nM
same,CC50,[3]; [28],> 100000 nM
same,TGI,[3]; read-out: pTGI (converted),2510 nM
same,growth at 100 µM,[4],-25%
same,IC50,[5],430 nM
same,GI50,[5]; read-out: GI50,425 nM
same,LC50,[5]; read-out: LC50,11.5 nM
same,TGI,[5]; read-out: TGI,2030 nM
same,GI50,[5]; read-out: pGI50 (converted),427 nM
same,LC50,[5]; read-out: pLC50 (converted),11700 nM
same,TGI,[5]; read-out: pTGI (converted),2040 nM
same,growth at 0.1 µM,[6],92%
same,growth at 0.01 µM,[7],79%
same,growth at 0.1 µM,[8],102%
same,IC50,[9],900 nM
same,GI50,[9]; read-out: GI50,900 nM
same,TGI,[9]; read-out: TGI,4930 nM
same,GI50,[9]; read-out: pGI50 (converted),891 nM
same,CC50,[9]; [28],69200 nM
same,TGI,[9]; read-out: pTGI (converted),4900 nM
same,growth at 0.01 µM,[10],64%
same,growth at 100 µM,[11],-42%
same,growth at 0.1 µM,[12],96%
same,growth at 0.01 µM,[13],93%
same,IC50,[14],460 nM
same,GI50,[14]; read-out: GI50,456 nM
same,TGI,[14]; read-out: TGI,1860 nM
same,GI50,[14]; read-out: pGI50 (converted),457 nM
same,CC50,[14]; [28],5370 nM
same,TGI,[14]; read-out: pTGI (converted),1860 nM
same,growth at 0.01 µM,[15],99%
same,IC50,[16],370 nM
same,GI50,[16]; read-out: GI50,372 nM
same,CC50,[16]; [27],3480 nM
same,TGI,[16]; read-out: TGI,4680 nM
same,GI50,[16]; read-out: pGI50 (converted),372 nM
same,CC50,[16]; [28],34700 nM
same,TGI,[16]; read-out: pTGI (converted),4680 nM
same,growth at 1 µM,[17],37%
same,growth at 0.1 µM,[18],89%
same,growth at 0.1 µM,[19],87%
same,growth at 1 µM,[20],18%
same,IC50,[21],330 nM
same,GI50,[21]; read-out: GI50,332 nM
same,CC50,[21]; [27],63.7 nM
same,TGI,[21]; read-out: TGI,1440 nM
same,GI50,[21]; read-out: pGI50 (converted),331 nM
same,CC50,[21]; [28],6310 nM
same,TGI,[21]; read-out: pTGI (converted),1450 nM
same,growth at 1 µM,[22],19%
same,growth at 100 µM,[23],-38%
same,growth at 100 µM,[24],-88%
same,IC50,[25],240 nM
same,GI50,[25]; read-out: GI50,238 nM
same,CC50,[25]; [27],> 100000 nM
same,TGI,[25]; read-out: TGI,760 nM
same,GI50,[25]; read-out: pGI50 (converted),234 nM
same,CC50,[25]; [28],> 100000 nM
same,TGI,[25]; read-out: pTGI (converted),759 nM
same,growth at 100 µM,[26],-88%
